{"source": "paper PMC10920834", "about": "“Synthesis, anticancer activity, and molecular docking of half-sandwich iron(II) cyclopentadienyl complexes with maleimide and phosphine or phosphite ligands” (Scientific Reports, 2024)", "format_in_all_cases": "cell-based, human", "key": {"[1]": {"tested_on": "HL-60 cells", "assay": "Cell viability resazurin assay, HL-60 cells", "conditions": "for viability of HL-60 cells relative to control: ± SD", "procedure": "(§1) The A549 (human non-small cell lung cancer) cell line was obtained from the American Type Culture Collection (ATCC) and cultured in Dulbecco's Modified Eagle Medium (DMEM) with 10% fetal bovine serum (FBS), 2 mM L-Glutamine, 25 mM HEPES and penicillin/streptomycin solution (100 U/ml and 100 µg/ml, respectively). The HL-60 (human promyelocytic leukemia) cell line was also obtained from the American Type Culture Collection (ATCC) and cultured in Iscove’s Modified Dulbecco's Medium (IMDM) with 15% fetal bovine serum (FBS), 2 mM L-Glutamine, 25 mM HEPES and penicillin/streptomycin solution (100 U/ml and 100 µg/ml, respectively). Both cell lines were cultured in flasks at 37 °C in 5% CO2 and sub-cultured every 2–3 days to maintain exponential growth.\n(§2) Firstly, resazurin salt powder was dissolved in sterile 1 × PBS. Cells were then seeded on the 96-well plates in the count of 1 × 10^4 in the case of HL-60 cells and of 5 × 10^4 for PBM cells and of 5 × 10^3 for A549 cells per well. A549 cells were seeded 24 h prior to treatment with the complexes to allow cell adherence to 96-well plate. Iron(II) complexes were added to wells to obtain final concentrations of 0.5, 1, 2.5, 5, 10, 25, 50, 100 and 250 μM. Subsequently, plates were incubated at 37 °C in 5% CO2 for 2 h and 24 h. After that 10 μl of resazurin salt was added to each well and plates again were incubated in 37 °C in 5% CO2 for 2 h. Finally, fluorescence was measured with microplate reader Synergy HT (Bio-Tek Instruments, USA) using an excitation wavelength of 530/25 and an emission wavelength of 590/35 nm. The effects of iron(II) complexes were calculated as the percentage of control fluorescence. IC50 (half maximal inhibitory concentration) values were calculated using a website algorithm (https://www.aatbio.com/tools/ic50-calculator). All assays were performed in octuplicate."}, "[2]": {"tested_on": "A549 cells", "assay": "Cell viability resazurin assay, A549 cells", "conditions": "for viability of A549 cells relative to control: ± SD", "procedure": "as §1, §2"}, "[3]": {"tested_on": "PBM cells", "assay": "Cell viability resazurin assay, PBM cells", "conditions": "for viability of PBM cells relative to control: ± SD", "text": "Peripheral blood mononuclear (PBM) cells were isolated from a leukocyte-buffy coat collected from the blood of healthy, non-smoking donors at the Blood Bank in Lodz, Poland. The study protocol received approval from the Committee for Research on Human Subjects of the University of Lodz (17/KBBN-UŁ/III/2019). The initial step of isolation process involved mixing buffy coats with PBS in a 1:1 ratio. Subsequently, the mixture was centrifuged using a density gradient of Lymphosep (Cytogen, Zgierz, Poland) at 2200 RPM for 20 min, employing the lowest values for acceleration and deceleration. PBM cells were collected and washed three times by centrifugation with 1 × PBS. Following isolation, the cells were suspended in RPMI 1640 medium.\nas §2"}}}
{"smiles": "O=C1C=CC(=O)[N-]1.[C-]#[O+].[Fe+2].c1cc[cH-]c1.c1ccc(OP(Oc2ccccc2)Oc2ccccc2)cc1", "note": "[3b, CpFe(CO)(P(OPh)3)(η^1-N-maleimidato)]", "values": [{"measurement": "viability of HL-60 cells relative to control", "setting": "[1]; 2 h incubation, 0.5 µM", "result": "108.58 ± 5.93", "unit": "%"}, {"measurement": "viability of HL-60 cells relative to control", "setting": "[1]; 2 h incubation, 1 µM", "result": "105.27 ± 5.97", "unit": "%"}, {"measurement": "viability of HL-60 cells relative to control", "setting": "[1]; 2 h incubation, 2.5 µM", "result": "111.13 ± 4.29", "unit": "%"}, {"measurement": "viability of HL-60 cells relative to control", "setting": "[1]; 2 h incubation, 5 µM", "result": "116.45 ± 4.31", "unit": "%"}, {"measurement": "viability of HL-60 cells relative to control", "setting": "[1]; 2 h incubation, 10 µM", "result": "125.67 ± 4.5", "unit": "%"}, {"measurement": "viability of HL-60 cells relative to control", "setting": "[1]; 2 h incubation, 25 µM", "result": "140.68 ± 7.01", "unit": "%"}, {"measurement": "viability of HL-60 cells relative to control", "setting": "[1]; 2 h incubation, 50 µM", "result": "116.21 ± 2.09", "unit": "%"}, {"measurement": "viability of HL-60 cells relative to control", "setting": "[1]; 2 h incubation, 100 µM", "result": "70.87 ± 2.53", "unit": "%"}, {"measurement": "viability of HL-60 cells relative to control", "setting": "[1]; 2 h incubation, 250 µM", "result": "23.24 ± 0.25", "unit": "%"}, {"measurement": "HL-60 cell viability, sharp increase up to", "setting": "[1]; 2 h incubation, concentration not given", "result": "approximately 140%"}, {"measurement": "IC50", "setting": "[1]; 24 h incubation", "result": 9.09, "unit": "µM"}, {"measurement": "viability of HL-60 cells relative to control", "setting": "[1]; 24 h incubation, 0.5 µM", "result": "101.68 ± 1.04", "unit": "%"}, {"measurement": "viability of HL-60 cells relative to control", "setting": "[1]; 24 h incubation, 1 µM", "result": "98.91 ± 4.85", "unit": "%"}, {"measurement": "viability of HL-60 cells relative to control", "setting": "[1]; 24 h incubation, 2.5 µM", "result": "91.42 ± 3.16", "unit": "%"}, {"measurement": "viability of HL-60 cells relative to control", "setting": "[1]; 24 h incubation, 5 µM", "result": "72.37 ± 3.19", "unit": "%"}, {"measurement": "viability of HL-60 cells relative to control", "setting": "[1]; 24 h incubation, 10 µM", "result": "49.27 ± 1.71", "unit": "%"}, {"measurement": "viability of HL-60 cells relative to control", "setting": "[1]; 24 h incubation, 25 µM", "result": "3.18 ± 0.36", "unit": "%"}, {"measurement": "viability of HL-60 cells relative to control", "setting": "[1]; 24 h incubation, 50 µM", "result": "0.99 ± 0.02", "unit": "%"}, {"measurement": "viability of HL-60 cells relative to control", "setting": "[1]; 24 h incubation, 100 µM", "result": "0.96 ± 0.1", "unit": "%"}, {"measurement": "viability of HL-60 cells relative to control", "setting": "[1]; 24 h incubation, 250 µM", "result": "0.94 ± 0.06", "unit": "%"}, {"measurement": "viability of A549 cells relative to control", "setting": "[2]; 2 h incubation, 0.5 µM", "result": "94.42 ± 12.46", "unit": "%"}, {"measurement": "viability of A549 cells relative to control", "setting": "[2]; 2 h incubation, 1 µM", "result": "97.15 ± 8.30", "unit": "%"}, {"measurement": "viability of A549 cells relative to control", "setting": "[2]; 2 h incubation, 2.5 µM", "result": "96.59 ± 9.16", "unit": "%"}, {"measurement": "viability of A549 cells relative to control", "setting": "[2]; 2 h incubation, 5 µM", "result": "90.46 ± 7.14", "unit": "%"}, {"measurement": "viability of A549 cells relative to control", "setting": "[2]; 2 h incubation, 10 µM", "result": "93.75 ± 11.55", "unit": "%"}, {"measurement": "viability of A549 cells relative to control", "setting": "[2]; 2 h incubation, 25 µM", "result": "97.77 ± 7.39", "unit": "%"}, {"measurement": "viability of A549 cells relative to control", "setting": "[2]; 2 h incubation, 50 µM", "result": "104.82 ± 7.84", "unit": "%"}, {"measurement": "viability of A549 cells relative to control", "setting": "[2]; 2 h incubation, 100 µM", "result": "97.69 ± 11.65", "unit": "%"}, {"measurement": "viability of A549 cells relative to control", "setting": "[2]; 2 h incubation, 250 µM", "result": "97.95 ± 13.58", "unit": "%"}, {"measurement": "IC50", "setting": "[2]; 24 h incubation", "result": 19.2, "unit": "µM"}, {"measurement": "viability of A549 cells relative to control", "setting": "[2]; 24 h incubation, 0.5 µM", "result": "91.38 ± 8.55", "unit": "%"}, {"measurement": "viability of A549 cells relative to control", "setting": "[2]; 24 h incubation, 1 µM", "result": "92.49 ± 11.20", "unit": "%"}, {"measurement": "viability of A549 cells relative to control", "setting": "[2]; 24 h incubation, 2.5 µM", "result": "78.64 ± 6.01", "unit": "%"}, {"measurement": "viability of A549 cells relative to control", "setting": "[2]; 24 h incubation, 5 µM", "result": "80.46 ± 7.49", "unit": "%"}, {"measurement": "viability of A549 cells relative to control", "setting": "[2]; 24 h incubation, 10 µM", "result": "80.04 ± 11.40", "unit": "%"}, {"measurement": "viability of A549 cells relative to control", "setting": "[2]; 24 h incubation, 25 µM", "result": "25.66 ± 3.11", "unit": "%"}, {"measurement": "viability of A549 cells relative to control", "setting": "[2]; 24 h incubation, 50 µM", "result": "22.34 ± 2.60", "unit": "%"}, {"measurement": "viability of A549 cells relative to control", "setting": "[2]; 24 h incubation, 100 µM", "result": "42.71 ± 5.87", "unit": "%"}, {"measurement": "viability of A549 cells relative to control", "setting": "[2]; 24 h incubation, 250 µM", "result": "28.61 ± 5.09", "unit": "%"}, {"measurement": "viability of PBM cells relative to control", "setting": "[3]; 2 h incubation, 0.5 µM", "result": "98.5 ± 2.18", "unit": "%"}, {"measurement": "viability of PBM cells relative to control", "setting": "[3]; 2 h incubation, 1 µM", "result": "99.88 ± 2.57", "unit": "%"}, {"measurement": "viability of PBM cells relative to control", "setting": "[3]; 2 h incubation, 2.5 µM", "result": "97.35 ± 5.51", "unit": "%"}, {"measurement": "viability of PBM cells relative to control", "setting": "[3]; 2 h incubation, 5 µM", "result": "100.32 ± 3.02", "unit": "%"}, {"measurement": "viability of PBM cells relative to control", "setting": "[3]; 2 h incubation, 10 µM", "result": "99.06 ± 3.6", "unit": "%"}, {"measurement": "viability of PBM cells relative to control", "setting": "[3]; 2 h incubation, 25 µM", "result": "98.42 ± 1.87", "unit": "%"}, {"measurement": "viability of PBM cells relative to control", "setting": "[3]; 2 h incubation, 50 µM", "result": "100.03 ± 0.88", "unit": "%"}, {"measurement": "viability of PBM cells relative to control", "setting": "[3]; 2 h incubation, 100 µM", "result": "98.48 ± 0.54", "unit": "%"}, {"measurement": "viability of PBM cells relative to control", "setting": "[3]; 2 h incubation, 250 µM", "result": "99.51 ± 1.24", "unit": "%"}, {"measurement": "IC50", "setting": "[3]; 24 h incubation", "result": 5.8, "unit": "µM"}, {"measurement": "viability of PBM cells relative to control", "setting": "[3]; 24 h incubation, 0.5 µM", "result": "97.8 ± 2.01", "unit": "%"}, {"measurement": "viability of PBM cells relative to control", "setting": "[3]; 24 h incubation, 1 µM", "result": "98.46 ± 7.18", "unit": "%"}, {"measurement": "viability of PBM cells relative to control", "setting": "[3]; 24 h incubation, 2.5 µM", "result": "94.41 ± 2.27", "unit": "%"}, {"measurement": "viability of PBM cells relative to control", "setting": "[3]; 24 h incubation, 5 µM", "result": "52.91 ± 0.63", "unit": "%"}, {"measurement": "viability of PBM cells relative to control", "setting": "[3]; 24 h incubation, 10 µM", "result": "49.35 ± 1.94", "unit": "%"}, {"measurement": "viability of PBM cells relative to control", "setting": "[3]; 24 h incubation, 25 µM", "result": "31 ± 1.1", "unit": "%"}, {"measurement": "viability of PBM cells relative to control", "setting": "[3]; 24 h incubation, 50 µM", "result": "28.33 ± 2.17", "unit": "%"}, {"measurement": "viability of PBM cells relative to control", "setting": "[3]; 24 h incubation, 100 µM", "result": "16.65 ± 0.55", "unit": "%"}, {"measurement": "viability of PBM cells relative to control", "setting": "[3]; 24 h incubation, 250 µM", "result": "13.82 ± 0.52", "unit": "%"}]}
